Experimental data taken from patent US12171754B2, “Combinational uses of nitroxoline and its analogues with chemotherapies and immunotherapies in the treatment of cancers” (Jiangsu Yahong Meditech Co., Ltd., priority 2016, dated 2024).
Values joined by “and” are separate entries in the source; they are usually repeats but may differ in a detail not shown here. Identical values can stand only once. Like-named read-outs stand apart in the source and are kept apart here.

Assays:
[1] = test system: human liver cancer cell line HepG2; experiment: MTT assay, inhibition of cell growth (single drugs and combinations with NIT; CI by Chou's method); format: cell-based
Experimental: (§1) The combinational studies of NIT and chemotherapies were conducted by mixing NIT with individual chemotherapies at five to seven concentration levels, with the medium concentration levels close to their IC50 values. The combinational indices (CIs) were calculated and plotted according to Ting-Chao Chou's method (19) to estimate the combinational effects, including synergism, addition and antagonism.
(§2) Compounds: NIT, carboplatin, paclitaxel, epirubicin and pirarubicin were purchased from suppliers, and were dissolved in the DMSO to stock solution and store in −20° C. Before use, the stock solutions were diluted to different concentrations of working solutions. The DMSO concentration in working solutions was less than 1%. All cancer cell lines were purchased from vendors.
(§3) An MTT assay was used as the test method. An appropriate amount of cells (2×10^3/100 μL) was seeded into 96-well plate and incubated at 37° C. in a CO2 incubator overnight for cell adhesion and adaptation. Cancer cells were also seeded in a separate 96-well plate (plate T0), 12 wells/cell line, to measure the OD value at time zero (T0). After overnight adaptation, 20 μL MTT reagent were added per well (final concentration 0.5 mg/mL) to plate T0 and incubated at 37° C. for 4 hours. The supernatant medium was pipetted out, and about 150 μL DMSO were added per well. The plate was read on a plate reader using 550 nm as the test wavelength and 630 nm as the reference wavelength to obtain the OD value at time zero (T0). After overnight adaptation, the test compounds and vehicle were added into the plate to treat the cells. The test compounds were tested at 6 concentrations in triplicate wells. The plate was incubated at 37° C. in a CO2 incubator for 48 h. A longer incubation time can be used. 20 μL MTT reagent were added per well and incubated at 37° C. for 4 h. the supernatant medium was pipetted out, and about 150 μL DMSO were added per well. The plate was read on a plate reader (TECAN, Infinite M200) using about […] as the test wavelength and about […] as the reference wavelength. Cell viability (%) was calculated in two ways: % Viability=[(T−B)/(C−B)]×100% % Viability=[(T−C0)/(C−C0)]×100%
(§4) T: Mean Absorbance of Treatment at various hours;
(§5) C: Mean Absorbance of negative Control at various hours;
(§6) B: Mean Absorbance of blank well (only culture medium) at various hours;
(§7) C0: Mean Absorbance of negative Control at 0 h.
(§8) The results are expressed as mean±SD. The IC50 was calculated by XLfit software. The test for each compound was independently repeated once.

[2] = test system: human bladder cancer cell line 5637; experiment: as above; format: cell-based; conditions: for Average Fa: 96 hours; for IC25 / IC75: 5637
Experimental: as §1, §2, §3, §4, §5, §6, §7, §8

MBT-2-Luc bladder cancer [3] = experiment: Oral NIT with intravesical MMC in orthotopic mouse MBT-2-Luc bladder cancer model; conditions: NIT 15 mg/kg Bid oral, MMC 1 mg/ml Q7d intravesical, single drug or actual observed value of combination; for Survival Proportion: end of the experiment (45 days)
Experimental: The tumor volume was analyzed by the Xenogen IVIS200 system following the indicated treatment. […] The tumor volume of each mouse was determined by region-of-interest analysis of total photons per second. Six mice were analyzed in each group.
To establish the orthotopic bladder cancer tumors, the mice were anesthetized by the intraperitoneal (i.p.) administration of ketamine/xylazine solution at a dose of 0.1 ml/10 g body weight (K113; Sigma-Aldrich Japan G.K., Tokyo, Japan). A 24-gauge Teflon intravenous catheter was subsequently inserted through the urethra into the bladder or prostate using an inert lubricant. In order to prepare the bladder for tumor implantation, a brief acid exposure, followed by alkaline neutralization, promoted a chemical lesion on the bladder wall, performed by the intravesical instillation of 8 μl 1 MOI silver nitrate. This led to the formation of an adequate and controlled diffuse bladder wall lesion. After 15 sec, the content was washed out by transurethral infusion of PBS. The first catheter was removed and a new 24-gauge catheter was inserted in the urethra for intravesical instillation of MBT-2-Luc cells (5×10^4 cells mixed with 0.1 ml PBS) and retained for 1.5 h by stitches. Every 10 days, tumor imaging was performed following i.p. administration of luciferin using bioluminescence technology (Xenogen IVIS200 system; Xenogen Corporation, Hopkinton, Mass., USA).
For the NIT and MMC combination, the mice carrying orthotopic bladder cancer tumors were randomly divided into four groups: control (PBS), NIT, MMC, and the combination of NIT and MMC.
(§9) The mice received i.p. injections of luciferin, and the luciferase expression in the tumors was measured by the Xenogen IVIS200 System.
Additivity was determined using the fractional product concept or Bliss Independence model: Exy=Ex+Ey−(ExEy), where EXY is the additive effect of the 2 compounds x and y as calculated by the product of the individual effect of the 2 compounds, Ex and Ey. Synergy was established when the actual observed tumor inhibition value was greater than the expected tumor inhibition value determined by the Bliss Independence model (20).

RM-9-Luc prostate cancer = experiment: Oral NIT with intraperitoneal anti-PD-1 antibody in orthotopic mouse RM-9-Luc prostate cancer model; format: in vivo
Experimental: Eight mice were analyzed for each group.
A low abdominal transverse incision was made, and the bilateral dorsal lobes of prostate were exposed. Following the trypsinization of RM-9-Luc cells, 5.0×10^3 cells in 10 μl of Hanks' balanced salt solution were injected using a new 24-gauge catheter directly into the right dorsal lobe of the prostate. A clearly recognizable bleb within the injected prostatic lobe was considered as a sign of a technically satisfactory injection. The abdominal wound was closed with stainless steel clips (Autoclip; Becton Dickinson Co., Sparks, Md.).

MBT-2-Luc bladder cancer [4] = experiment: Oral NIT with intraperitoneal anti-PD-1 antibody in orthotopic mouse MBT-2-Luc bladder cancer model
Experimental: The tumor volume of each mouse was determined by region-of-interest analysis of total photons per second. Five mice were analyzed in each group.
To establish the orthotopic bladder cancer tumors, the mice were anesthetized by the intraperitoneal (i.p.) administration of ketamine/xylazine solution at a dose of 0.1 ml/10 g body weight (K113; Sigma-Aldrich Japan G.K., Tokyo, Japan). A 24-gauge Teflon intravenous catheter was subsequently inserted through the urethra into the bladder or prostate using an inert lubricant. In order to prepare the bladder for tumor implantation, a brief acid exposure, followed by alkaline neutralization, promoted a chemical lesion on the bladder wall, performed by the intravesical instillation of 8 μl 1 MOI silver nitrate. This led to the formation of an adequate and controlled diffuse bladder wall lesion. After 15 sec, the content was washed out by transurethral infusion of PBS. […]
as §9
Additivity was determined using the fractional product concept or Bliss Independence model: Exy=Ex+Ey−(ExEy), where EXY is the additive effect of the 2 compounds x and y as calculated by the product of the individual effect of the 2 compounds, Ex and Ey.

MBT-2-Luc bladder cancer [5] = test system: MBT-2-Luc bladder cancer; design: concentration or dose not given beside the values; conditions: mouse, in vivo
[6] = Homo sapiens, cell line 5637, read-out: IC50 for inhibition of cell growth
[7] = Homo sapiens, inhibition of cell growth, 5637 (Table 9), read-out: IC50

N.N.O=C([O-])C1(C(=O)[O-])CCC1.[Pt+2] [Carboplatin, carboplatin]
Inhibition Rates ([1]; Carbo 4 μg/ml, 120 hours): 38.9%
Inhibition Rates ([1]; Carbo 8 μg/ml, 120 hours): 70.7%
Inhibition Rates ([1]; Carbo 16 μg/ml, 120 hours): 85.2%
Inhibition Rates ([1]; Carbo 32 μg/ml, 120 hours): 89.1%
Inhibition Rates ([1]; Carbo 64 μg/ml, 120 hours): 93.0%
Inhibition Rates ([1]; Carbo 128 μg/ml, 120 hours): 93.9%
IC50 for inhibition of cell growth ([1]; cell line HepG2): 3.687 µg/mL
Inhibition Rates ([2]; Carbo 0.5 μg/ml, 120 hours): 31.5%
Inhibition Rates ([2]; Carbo 1 μg/ml, 120 hours): 53.7%
Inhibition Rates ([2]; Carbo 2 μg/ml, 120 hours): 69.9%
Inhibition Rates ([2]; Carbo 4 μg/ml, 120 hours): 88.1%
Inhibition Rates ([2]; Carbo 8 μg/ml, 120 hours): 91.5%
IC50 for inhibition of cell growth ([2]; cell line 5637): 0.917 µg/mL

O=[N+]([O-])c1ccc(O)c2ncccc12 [NIT, Nitroxoline]
Tumor Growth Inhibition (MBT-2-Luc bladder cancer [3]): 0.33
Survival Proportion (MBT-2-Luc bladder cancer [3]): 0.33
Tumor Weight Proportion (RM-9-Luc prostate cancer; NIT 15 mg/kg bid p.o., anti-PD-1 10 mg/kg q4d intraperitoneal, single drug or actual observed value of combination): 0.37
tumor growth inhibition rate (RM-9-Luc prostate cancer; tumor volume, FIG. 12B, NIT 15 mg/kg oral, anti-PD-1 10 mg/kg intraperitoneal): 52%
Tumor Growth Inhibition (RM-9-Luc prostate cancer; tumor volume, NIT 15 mg/kg bid p.o., anti-PD-1 10 mg/kg q4d intraperitoneal, single drug or actual observed value of combination): 0.52
tumor inhibition by tumor weight (RM-9-Luc prostate cancer; tumor weight, FIG. 12D, NIT 15 mg/kg oral, anti-PD-1 10 mg/kg intraperitoneal): 37%
Tumor Growth Inhibition (MBT-2-Luc bladder cancer [4]; NIT 15 mg/kg bid p.o., anti-PD-1 10 mg/kg q5d intraperitoneal, single drug or actual observed value of combination): 0.31
tumor inhibition rate (MBT-2-Luc bladder cancer [4]; NIT 15 mg/kg oral, anti-PD-1 10 mg/kg intraperitoneal, FIG. 11B): 31%
Survival Proportion (MBT-2-Luc bladder cancer [5]): 0.4
Tumor Growth Inhibition (MBT-2-Luc bladder cancer [5]): 0.52 and 0.35
inhibition at 0.5 µg/mL ([1]; Homo sapiens, HepG2, NIT 0.5 μg/ml, 120 hours, read-out: Inhibition Rates): 3.2%
inhibition at 1 µg/mL ([1]; Homo sapiens, HepG2, NIT 1 μg/ml, 120 hours, read-out: Inhibition Rates): 21.7%
inhibition at 2 µg/mL ([1]; Homo sapiens, HepG2, NIT 2 μg/ml, 120 hours, read-out: Inhibition Rates): 80.3%
inhibition at 4 µg/mL ([1]; Homo sapiens, HepG2, NIT 4 μg/ml, 120 hours, read-out: Inhibition Rates): 90.5%
inhibition at 8 µg/mL ([1]; Homo sapiens, HepG2, NIT 8 μg/ml, 120 hours, read-out: Inhibition Rates): 93.5%
inhibition at 16 µg/mL ([1]; Homo sapiens, HepG2, NIT 16 μg/ml, 120 hours, read-out: Inhibition Rates): 95.3%
IC50 ([1]; Homo sapiens, cell line HepG2): 1.86 µg/mL
inhibition at 0.25 µg/mL ([2]; Homo sapiens, NIT 0.25 μg/ml, 120 hours, read-out: Inhibition Rates): 18%
inhibition at 0.5 µg/mL ([2]; Homo sapiens, NIT 0.5 μg/ml, 120 hours, read-out: Inhibition Rates): 52%
inhibition at 1 µg/mL ([2]; Homo sapiens, NIT 1 μg/ml, 120 hours, read-out: Inhibition Rates): 79.9%
inhibition at 2 µg/mL ([2]; Homo sapiens, NIT 2 μg/ml, 120 hours, read-out: Inhibition Rates): 92.3%
inhibition at 4 µg/mL ([2]; Homo sapiens, NIT 4 μg/ml, 120 hours, read-out: Inhibition Rates): 95.5%
IC50 [2, 6]: 0.517 µg/mL
Average Fa ([2]; NIT 625, Mitomycin C 0 (units not given)): −7.2%
Average Fa ([2]; NIT 1250, Mitomycin C 0 (units not given)): −3.8%
Average Fa ([2]; NIT 2500, Mitomycin C 0 (units not given)): 23.3%
Average Fa ([2]; NIT 5000, Mitomycin C 0 (units not given)): 74.3%
Average Fa ([2]; NIT 10000, Mitomycin C 0 (units not given)): 94.0%

COc1cccc2c1C(=O)c1c(O)c3c(c(O)c1C2=O)C[C@@](O)(C(=O)CO)C[C@@H]3O[C@H]1C[C@H](N)[C@@H](O)[C@H](C)O1 [Epirubicin, epirubicin]
IC50 [2, 7]: 0.0452 µg/mL
IC25 ([2]; inhibition of cell growth): 0.03497 µg/mL
IC75 ([2]; inhibition of cell growth): 0.06393 µg/mL

CC(=O)O[C@H]1C(=O)[C@@]2(C)[C@H]([C@H](OC(=O)c3ccccc3)[C@]3(O)C[C@H](OC(=O)[C@H](O)[C@@H](NC(=O)c4ccccc4)c4ccccc4)C(C)=C1C3(C)C)[C@]1(OC(C)=O)CO[C@@H]1C[C@@H]2O [Paclitaxel, paclitaxel]
IC50 ([1]; Homo sapiens, cell line HepG2): 0.0025 µg/mL
Inhibition Rates ([1]; Taxol 0.5 ng/ml, 112 hours): 5.8%
Inhibition Rates ([1]; Taxol 1 ng/ml, 112 hours): 14.0%
Inhibition Rates ([1]; Taxol 2 ng/ml, 112 hours): 47.5%
Inhibition Rates ([1]; Taxol 4 ng/ml, 112 hours): 75.8%
Inhibition Rates ([1]; Taxol 8 ng/ml, 112 hours): 90.4%
Inhibition Rates ([1]; Taxol 16 ng/ml, 112 hours): 92.7%
IC50 [2, 6]: 0.000289 µg/mL
Inhibition Rates ([2]; Taxol 0.125 ng/ml, 112 hours): 11.9%
Inhibition Rates ([2]; Taxol 0.25 ng/ml, 112 hours): 47.6%
Inhibition Rates ([2]; Taxol 0.5 ng/ml, 112 hours): 84.3%
Inhibition Rates ([2]; Taxol 1 ng/ml, 112 hours): 90.3%
Inhibition Rates ([2]; Taxol 2 ng/ml, 112 hours): 96.8%

CO[C@@]12[C@H](COC(N)=O)C3=C(C(=O)C(C)=C(N)C3=O)N1C[C@@H]1N[C@@H]12 [Mitomycin C, mitomycin C]
Tumor Growth Inhibition (MBT-2-Luc bladder cancer [3]): 0.56
Survival Proportion (MBT-2-Luc bladder cancer [3]): 0.57
Average Fa ([2]; NIT 0, Mitomycin C 3.13 (units not given)): 1.6%
Average Fa ([2]; NIT 0, Mitomycin C 12.5 (units not given)): 27.7%
Average Fa ([2]; NIT 0, Mitomycin C 50 (units not given)): 77.9%
Average Fa ([2]; NIT 0, Mitomycin C 200 (units not given)): 79.4%
IC25 ([2]; inhibition of cell growth): 0.04836 µg/mL
IC75 ([2]; inhibition of cell growth): 0.53662 µg/mL
IC50 ([2]; inhibition of cell growth, 5637 (Table 9)): 0.15253 µg/mL

COc1cccc2c1C(=O)c1c(O)c3c(c(O)c1C2=O)C[C@@](O)(C(=O)CO)C[C@@H]3O[C@H]1C[C@H](N)[C@H](O[C@@H]2CCCCO2)[C@H](C)O1 [Pirarubicin, pirarubicin]
IC50 [2, 7]: 0.143 µg/mL
IC25 ([2]; inhibition of cell growth): 0.09658 µg/mL
IC75 ([2]; inhibition of cell growth): 0.21958 µg/mL
